ChEMBL document CHEMBL1817540, “Design and discovery of a selective small molecule κ opioid antagonist (2-methyl-N-((2'-(pyrrolidin-1-ylsulfonyl)biphenyl-4-yl)methyl)propan-1-amine, PF-4455242)” (J Med Chem, 2011)
≈ marks a conversion by molar mass, not a printed value.

How the values were obtained:
[1] = Solubility of compound at pH 5.5; assay type: physicochemical; details: buffer
[2] = Solubility of compound at pH 6.6; assay type: physicochemical; details: buffer
[3] = Permeability of the compound by PAMPA; assay type: ADME; details: read-out: permeability
[4] = Permeability across dog RRCK cells; assay type: ADME, cell-based, Canis lupus familiaris, MDCKII-LE; details: MDCK, read-out: permeability
[5] = Penetration ratio, ratio of fAUC (0 to 4 hrs) in Sprague-Dawley rat brain to fAUC (0 to 4 hrs) in Sprague-Dawley rat plasma at […], sc; assay type: ADME, organism-based; set-up: dose 3.2 mg/kg, route subcutaneous
[6] = Penetration ratio, ratio of AUC (0 to 4 hrs) in Sprague-Dawley rat CSF to AUC (0 to 4 hrs) in Sprague-Dawley rat unbound plasma at […], sc; assay type: ADME, organism-based; set-up: dose 3.2 mg/kg, route subcutaneous; details: read-out: Ratio AUC

With `CC(C)CNCc1ccc(-c2ccccc2S(=O)(=O)N2CCCC2)cc1` [PF-04455242] the solubility [1] was > 8530 µg/mL, the solubility [2] was 110 µg/mL (≈ 295 µM) and the Papp [3] was 19 ×10⁻⁶ cm/s. It also gave a Papp [4] of 19 ×10⁻⁶ cm/s, a Kp uu [5] of 1 and a Kp uu [6] of 1.2.
